According to ChEMBL document CHEMBL1909046, “DrugMatrix in vitro pharmacology data”:
*1 amine or outer side, *2 acyl side, *3 side chain or, on linkers, in order; H or OH if unused. Where a SMILES comes first, the peptide text is derived from it. Bridges are numbered along the chain shown (N, C = ends). Roman numbers before positions name the chains, in order. [ ]: non-standard residue; d: D form. Actinocin(1to9) = Cc1c2oc3c(C)ccc(C(=O)[*:2])c3nc-2c(C(=O)[*:1])c(N)c1=O; NMeV = CN[C@H](C(=O)O)C(C)C; Sar = CNCC(=O)O

What was measured:
[1] = biological target: T1, Calcitonin receptor (Homo sapiens, UniProt P30988); format: cell membranes, Membrane; details: t47d; also: in other assays of this panel Not Active means under 50% inhibition at 10 µM
T1 sequence (P30988 whole entry): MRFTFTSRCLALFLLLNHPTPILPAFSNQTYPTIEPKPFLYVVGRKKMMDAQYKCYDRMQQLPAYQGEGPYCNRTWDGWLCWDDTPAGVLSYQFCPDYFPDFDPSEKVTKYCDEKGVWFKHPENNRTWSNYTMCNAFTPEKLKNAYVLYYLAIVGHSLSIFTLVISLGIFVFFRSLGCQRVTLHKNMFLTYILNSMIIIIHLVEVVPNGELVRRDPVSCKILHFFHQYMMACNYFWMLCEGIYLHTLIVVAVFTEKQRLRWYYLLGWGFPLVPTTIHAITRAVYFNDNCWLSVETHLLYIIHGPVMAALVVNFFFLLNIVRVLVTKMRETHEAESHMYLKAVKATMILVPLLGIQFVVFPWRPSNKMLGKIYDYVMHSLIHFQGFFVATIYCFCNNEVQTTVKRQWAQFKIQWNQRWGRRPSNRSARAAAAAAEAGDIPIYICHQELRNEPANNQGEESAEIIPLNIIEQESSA

[2] = DRUGMATRIX: Calcium Channel Type L, Dihydropyridine radioligand binding (ligand: [3H] Nitrendipine); format: cell membranes, Rattus norvegicus, Wistar, Cerebral cortex, Membrane; details: Not Active = under 50% inhibition at 10 µM
[3] = biological target: Substance-P receptor (Homo sapiens, UniProt P25103); format: cell membranes, CHO, Membrane; details: cho; also: in other assays of this panel Not Active means under 50% inhibition at 10 µM
[4] = DRUGMATRIX: Tumor Necrosis Factor (TNF), Non-Selective radioligand binding (ligand: [125I] TNF-alpha); format: cell membranes, Membrane; details: u-937; Not Active = under 50% inhibition at 10 µM
[5] = biological target: Vasopressin V1a receptor (Homo sapiens, UniProt P37288); format: cell membranes, Membrane; details: hek293; also: in other assays of this panel Not Active means under 50% inhibition at 10 µM
[6] = biological target: C-C chemokine receptor type 2 (Homo sapiens, UniProt P41597); format: cell membranes, CHO-K1, Membrane; details: cho-k1; also: in other assays of this panel Not Active means under 50% inhibition at 10 µM
[7] = biological target: T2, C-X-C chemokine receptor type 1 (Homo sapiens, UniProt P25024); also: in other assays of this panel Not Active means under 50% inhibition at 10 µM
T2 sequence (P25024 whole entry): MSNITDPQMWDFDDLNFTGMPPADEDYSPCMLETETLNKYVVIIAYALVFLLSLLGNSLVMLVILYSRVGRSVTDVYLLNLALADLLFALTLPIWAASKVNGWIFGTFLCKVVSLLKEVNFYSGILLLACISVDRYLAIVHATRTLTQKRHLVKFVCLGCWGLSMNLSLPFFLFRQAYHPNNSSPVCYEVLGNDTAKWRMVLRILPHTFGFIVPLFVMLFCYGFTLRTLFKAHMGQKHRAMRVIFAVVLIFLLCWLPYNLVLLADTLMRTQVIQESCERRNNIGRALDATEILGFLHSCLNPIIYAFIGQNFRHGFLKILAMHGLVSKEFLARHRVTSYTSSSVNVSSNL

[8] = biological target: T3, Amine oxidase [flavin-containing] A (Homo sapiens, UniProt P21397); assay: DRUGMATRIX: Monoamine Oxidase MAO-A enzyme inhibition (substrate: Kynuramine); parameters: species or system BTI-TN-5B1-4; details: bti-tn-5b1-4; Not Active = under 50% inhibition at 10 µM
T3 sequence (P21397 whole entry): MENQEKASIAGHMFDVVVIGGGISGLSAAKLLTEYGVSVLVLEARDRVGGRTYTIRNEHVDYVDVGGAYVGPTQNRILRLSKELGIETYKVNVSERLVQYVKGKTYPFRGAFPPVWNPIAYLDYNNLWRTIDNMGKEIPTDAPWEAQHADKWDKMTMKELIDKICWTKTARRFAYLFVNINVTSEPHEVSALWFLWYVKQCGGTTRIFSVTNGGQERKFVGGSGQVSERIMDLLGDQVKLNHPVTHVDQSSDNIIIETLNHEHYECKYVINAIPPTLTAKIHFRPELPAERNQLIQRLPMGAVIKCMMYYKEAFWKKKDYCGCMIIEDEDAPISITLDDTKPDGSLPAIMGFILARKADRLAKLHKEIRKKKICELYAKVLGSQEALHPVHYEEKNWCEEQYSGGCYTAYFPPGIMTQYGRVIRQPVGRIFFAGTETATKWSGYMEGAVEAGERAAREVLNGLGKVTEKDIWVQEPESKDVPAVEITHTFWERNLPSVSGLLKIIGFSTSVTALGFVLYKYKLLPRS

[9] = biological target: Delta-type opioid receptor (Homo sapiens, UniProt P41143); format: cell membranes, HEK293, Membrane; details: hek293; also: in other assays of this panel Not Active means under 50% inhibition at 10 µM
Sequence of Delta-type opioid receptor (P41143 whole entry): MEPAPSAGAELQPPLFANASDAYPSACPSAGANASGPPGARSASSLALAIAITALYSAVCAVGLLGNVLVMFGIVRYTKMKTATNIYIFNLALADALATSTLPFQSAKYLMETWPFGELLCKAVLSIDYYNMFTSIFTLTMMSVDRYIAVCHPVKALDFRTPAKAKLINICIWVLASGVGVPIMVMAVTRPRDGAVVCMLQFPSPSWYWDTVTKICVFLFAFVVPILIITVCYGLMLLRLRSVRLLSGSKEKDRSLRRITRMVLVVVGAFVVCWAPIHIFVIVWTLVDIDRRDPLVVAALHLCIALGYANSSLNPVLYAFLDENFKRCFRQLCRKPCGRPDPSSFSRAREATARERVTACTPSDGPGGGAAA

Sequence of C-C chemokine receptor type 2 (P41597 whole entry): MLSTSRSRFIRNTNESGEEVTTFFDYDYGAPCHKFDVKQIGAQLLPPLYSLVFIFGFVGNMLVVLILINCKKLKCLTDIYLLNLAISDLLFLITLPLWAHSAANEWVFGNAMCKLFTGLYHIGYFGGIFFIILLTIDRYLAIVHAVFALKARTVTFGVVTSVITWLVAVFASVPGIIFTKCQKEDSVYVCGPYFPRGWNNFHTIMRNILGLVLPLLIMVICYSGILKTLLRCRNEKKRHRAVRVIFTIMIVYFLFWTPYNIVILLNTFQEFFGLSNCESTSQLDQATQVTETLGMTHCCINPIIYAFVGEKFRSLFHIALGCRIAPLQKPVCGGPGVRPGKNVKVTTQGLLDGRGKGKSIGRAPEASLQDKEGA
Sequence of Substance-P receptor (P25103 whole entry): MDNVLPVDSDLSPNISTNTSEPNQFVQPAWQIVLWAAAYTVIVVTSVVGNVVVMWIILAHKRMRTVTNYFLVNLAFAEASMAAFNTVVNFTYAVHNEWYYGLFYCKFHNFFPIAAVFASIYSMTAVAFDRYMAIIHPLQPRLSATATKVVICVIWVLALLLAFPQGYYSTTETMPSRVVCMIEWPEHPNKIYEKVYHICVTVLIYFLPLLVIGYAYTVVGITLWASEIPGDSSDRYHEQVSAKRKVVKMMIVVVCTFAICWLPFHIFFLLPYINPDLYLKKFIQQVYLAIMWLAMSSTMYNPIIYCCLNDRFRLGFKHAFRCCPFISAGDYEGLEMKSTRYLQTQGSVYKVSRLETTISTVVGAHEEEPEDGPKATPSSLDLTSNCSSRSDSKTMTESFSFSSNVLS
Sequence of Vasopressin V1a receptor (P37288 whole entry): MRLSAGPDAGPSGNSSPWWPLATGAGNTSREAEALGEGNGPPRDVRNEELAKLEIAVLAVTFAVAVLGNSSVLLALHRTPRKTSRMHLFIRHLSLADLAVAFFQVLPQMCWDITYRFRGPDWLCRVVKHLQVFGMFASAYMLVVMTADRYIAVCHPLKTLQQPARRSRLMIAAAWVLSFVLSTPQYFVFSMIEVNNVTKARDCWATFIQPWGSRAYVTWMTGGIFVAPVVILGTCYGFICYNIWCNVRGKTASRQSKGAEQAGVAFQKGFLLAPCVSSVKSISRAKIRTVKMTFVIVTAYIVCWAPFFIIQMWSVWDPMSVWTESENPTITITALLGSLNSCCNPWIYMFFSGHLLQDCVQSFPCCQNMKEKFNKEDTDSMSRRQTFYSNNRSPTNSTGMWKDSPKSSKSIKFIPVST

Cc1c(C)c2c(c(C)c1O)CC[C@@](C)(CCC[C@H](C)CCC[C@H](C)CCCC(C)C)O2 [ALPHA-TOCOPHEROL]
Not Active: IC50 [1] | IC50 [2] | Ki [2] | IC50 [3] | IC50 [4] | Ki [4] | IC50 [5] | IC50 [6] | IC50 [7] | IC50 [8] | IC50 [9]

Cc1cc(C(C#N)c2ccc(Cl)cc2)c(Cl)cc1NC(=O)c1cc(I)cc(I)c1O (centres undefined) [CLOSANTEL]
Not Active: IC50 [1] | IC50 [2] | Ki [2] | IC50 [3] | IC50 [4] | Ki [4] | IC50 [5] | IC50 [6] | IC50 [7] | IC50 [8] | IC50 [9]

CNNCc1ccc(C(=O)NC(C)C)cc1 [PROCARBAZINE]
Not Active: IC50 [1] | IC50 [2] | Ki [2] | IC50 [3] | IC50 [4] | Ki [4] | IC50 [5] | IC50 [6] | IC50 [7] | IC50 [8] | IC50 [9]

Cc1ccc(/N=C/N(C)/C=N/c2ccc(C)cc2C)c(C)c1 [AMITRAZ]
Not Active: IC50 [1] | IC50 [2] | Ki [2] | IC50 [3] | IC50 [4] | Ki [4] | IC50 [5] | IC50 [6] | IC50 [7] | IC50 [8] | IC50 [9]

Cc1ccc2cc3c(ccc4ccccc43)c3c2c1CC3 [3-METHYLCHOLANTHRENE]
Not Active: IC50 [1] | IC50 [2] | Ki [2] | IC50 [3] | IC50 [4] | Ki [4] | IC50 [5] | IC50 [6] | IC50 [7] | IC50 [8] | IC50 [9]

CNCCc1ccccn1 [BETAHISTINE]
Not Active: IC50 [1] | IC50 [2] | Ki [2] | IC50 [3] | IC50 [4] | Ki [4] | IC50 [5] | IC50 [6] | IC50 [7] | IC50 [8] | IC50 [9]

OC(Cn1cncn1)(Cn1cncn1)c1ccc(F)cc1F [FLUCONAZOLE]
Not Active: IC50 [1] | IC50 [2] | Ki [2] | IC50 [3] | IC50 [4] | Ki [4] | IC50 [5] | IC50 [6] | IC50 [7] | IC50 [8] | IC50 [9]

Cc1c2oc3c(C)ccc(C(=O)N[C@@H]4C(=O)N[C@H](C(C)C)C(=O)N5CCC[C@H]5C(=O)N(C)CC(=O)N(C)[C@@H](C(C)C)C(=O)O[C@@H]4C)c3nc-2c(C(=O)N[C@@H]2C(=O)N[C@H](C(C)C)C(=O)N3CCC[C@H]3C(=O)N(C)CC(=O)N(C)[C@@H](C(C)C)C(=O)O[C@@H]2C)c(N)c1=O [DACTINOMYCIN] (I: T[dV]P[Sar][NMeV] / II: T[dV]P[Sar][NMeV]; ester I:1-I:C, II:1-II:C; linker I:N-II:N via Actinocin(1to9))
Not Active: IC50 [1] | IC50 [2] | Ki [2] | IC50 [3] | IC50 [4] | Ki [4] | IC50 [5] | IC50 [6] | IC50 [7] | IC50 [8] | IC50 [9]

Nc1nc(N)nc(-c2cc(Cl)ccc2Cl)n1.O=C(O)/C=C\C(=O)O [IRSOGLADINE MALEATE]
Not Active: IC50 [1] | IC50 [2] | Ki [2] | IC50 [3] | IC50 [4] | Ki [4] | IC50 [5] | IC50 [6] | IC50 [7] | IC50 [8] | IC50 [9]

Nc1ncn([C@@H]2O[C@H](CO)[C@@H](O)[C@H]2O)c(=O)n1 [AZACITIDINE]
Not Active: IC50 [1] | IC50 [2] | Ki [2] | IC50 [3] | IC50 [4] | Ki [4] | IC50 [5] | IC50 [6] | IC50 [7] | IC50 [8] | IC50 [9]

CC(NC(C)(C)C)C(=O)c1cccc(Cl)c1 (centres undefined) [BUPROPION]
Not Active: IC50 [1] | IC50 [2] | Ki [2] | IC50 [3] | IC50 [4] | Ki [4] | IC50 [5] | IC50 [6] | IC50 [7] | IC50 [8] | IC50 [9]

Cc1cc(C2CCCCC2)n(O)c(=O)c1 [CICLOPIROX]
Not Active: IC50 [1] | IC50 [2] | Ki [2] | IC50 [3] | IC50 [4] | Ki [4] | IC50 [5] | IC50 [6] | IC50 [7] | IC50 [8] | IC50 [9]

CC1(C)S[C@@H]2[C@H](NC(=O)Cc3ccccc3)C(=O)N2[C@H]1C(=O)O [PENICILLIN G]
Not Active: IC50 [1] | IC50 [2] | Ki [2] | IC50 [3] | IC50 [4] | Ki [4] | IC50 [5] | IC50 [6] | IC50 [7] | IC50 [8] | IC50 [9]

COc1cc2nc(N3CCN(C(=O)C4COc5ccccc5O4)CC3)nc(N)c2cc1OC (centres undefined) [DOXAZOSIN]
Not Active: IC50 [1] | IC50 [2] | Ki [2] | IC50 [3] | IC50 [4] | Ki [4] | IC50 [5] | IC50 [6] | IC50 [7] | IC50 [8] | IC50 [9]
